From patent US20220315554A1, “COMPOUNDS COMPRISING A […] LIGAND AND USE THEREOF” (priority 2019, published 2022)
Numbered stars: 1 amine (or outer) side, 2 acyl side, 3 side chain; on linkers, the order of the positions; unused ones are H or OH. Bridge positions count the residues as written; N and C are the ends. Square brackets hold non-standard residues; d marks the D form. Peptide text beside a SMILES is read from it. * marks the point of attachment. TBMB(SCH2CH2NH-DOTA) = O=C(O)CN1CCN(CC(=O)O)CCN(CC(=O)NCCSCc2cc(C[*:1])cc(C[*:2])c2)CCN(CC(=O)O)CC1; X5 = O=C(O)CN1CCN(CC(=O)O)CCN(CC(=O)NCCSCc2cc(CSC[C@@H](CO)N[*:2])cc(C[*:1])c2)CCN(CC(=O)O)CC1; NH(CH2)3NH(O2Oc(DOTA)) = O=C(O)CN1CCN(CC(=O)O)CCN(CC(=O)NCCOCCOCC(=O)NCCCN*)CCN(CC(=O)O)CC1; X1 = O=C(O)CN1CCN(CC(=O)O)CCN(CC(=O)N2CCN(Cc3cc(C[*:1])cc(C[*:2])c3)CC2)CCN(CC(=O)O)CC1; X52 = NCCOCCOCC(=O)N1CCN(Cc2cc(C[*:1])cc(C[*:2])c2)CC1; Pyridine(2,6-diCH2) = c1cc(C[*:1])nc(C[*:2])c1; Pyridine(3,5-bisCH2) = c1ncc(C[*:2])cc1C[*:1]; mXylylene = c1cc(C[*:1])cc(C[*:2])c1; X41 = NCCCCCC(=O)NCCCOCCOCCOCCCN*; Suc = O=C(CCC(=O)[*:2])[*:1]; Nle = CCCC[C@H](N)C(=O)O; Hexanoyl = CCCCCC(=O)*; Sar = CNCC(=O)O

Columns and labels:
Human recombinant FAP = target: T1, Human recombinant FAP (Homo sapiens, UniProt Q12884); assay: FRET-based FAP protease activity assay; assay type: biochemical; set-up: purchased R&D systems 3715-SE; details: pIC50 Category (Activity), FRET substrate, 37° C.
T1 sequence (Q12884 1-760): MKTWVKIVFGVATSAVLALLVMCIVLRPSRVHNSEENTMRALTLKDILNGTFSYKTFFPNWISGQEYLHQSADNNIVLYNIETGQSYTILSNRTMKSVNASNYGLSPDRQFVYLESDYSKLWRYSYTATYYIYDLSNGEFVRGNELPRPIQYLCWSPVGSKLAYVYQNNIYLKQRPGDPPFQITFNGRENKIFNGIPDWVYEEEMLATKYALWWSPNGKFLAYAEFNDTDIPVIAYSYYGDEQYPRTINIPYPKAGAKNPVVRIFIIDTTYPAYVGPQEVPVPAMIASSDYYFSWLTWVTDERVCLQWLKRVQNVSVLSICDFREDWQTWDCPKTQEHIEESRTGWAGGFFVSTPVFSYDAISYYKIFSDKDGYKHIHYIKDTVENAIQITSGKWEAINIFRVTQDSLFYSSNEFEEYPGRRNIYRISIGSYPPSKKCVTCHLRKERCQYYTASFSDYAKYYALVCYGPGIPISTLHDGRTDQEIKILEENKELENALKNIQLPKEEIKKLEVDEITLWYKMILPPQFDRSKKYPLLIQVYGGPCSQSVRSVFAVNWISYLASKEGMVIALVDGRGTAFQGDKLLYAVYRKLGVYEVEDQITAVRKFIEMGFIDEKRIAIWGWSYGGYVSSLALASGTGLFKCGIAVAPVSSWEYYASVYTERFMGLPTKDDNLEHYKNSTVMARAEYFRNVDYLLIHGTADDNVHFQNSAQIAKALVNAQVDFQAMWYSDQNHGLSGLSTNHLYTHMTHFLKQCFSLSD

[1] = target: T2, FAP-expressing human WI-38 fibroblasts (Homo sapiens, UniProt Q12884); assay: Competitive FACS binding assay; details: competition with 3 nM Cy5-labeled compound, 4° C., 1 hour; for IC50: pIC50 Category (FACS)
T2 construct: FAP-expressing human WI-38 fibroblasts (ECACC) were cultured in EMEM; host or cells: WI-38 human fibroblasts
T2 sequence (Q12884 1-760): T1 sequence (Q12884 1-760)
Description: Cells were analyzed in an Attune NxT flow cytometer. […]

Structure (SMILES) | IC50 (Human recombinant FAP; recombinant human FAP) | IC50 ([1]; WI-38 fibroblasts) | IC50 (Human recombinant FAP) | IC50 [1] | pIC50 Category (FACS) [1]
CCCCCC(=O)N[C@H]1CSCc2cccc(c2)CSC[C@@H](C(=O)N[C@@H](CC(=O)O)C(N)=O)NC(=O)[C@H](Cc2ccccc2)NC(=O)[C@H](CCC(=O)NCCCNC(=O)COCCOCCNC(=O)CN2CCN(CC(=O)O)CCN(CC(=O)O)CCN(CC(=O)O)CC2)NC(=O)[C@H]([C@@H](C)O)NC(=O)[C@@H]2CCCN2C(=O)[C@@H]2CCCN2C1=O [3BP-3473, Hex-[Cys(3MeBn)-Pro-Pro-Thr-Glu(NH-Apr-O2O-DOTA')-Phe-Cys]-Asp-NH2] (Hexanoyl-CPPTE(NH(CH2)3NH(O2Oc(DOTA)))FCD-NH2; linker 1-7 via mXylylene) | 100 to 794 nM | 100 to 794 nM |  |  | 
CCCCCC(=O)N[C@H]1CSCc2cccc(n2)CSC[C@@H](C(=O)N[C@@H](CC(=O)O)C(N)=O)NC(=O)[C@H](Cc2ccccc2)NC(=O)[C@H](CCC(N)=O)NC(=O)[C@H]([C@@H](C)O)NC(=O)[C@@H]2CCCN2C(=O)[C@@H]2CCCN2C1=O [3BP-3518, Hex-[Cys(2Lut)-Pro-Pro-Thr-Gln-Phe-Cys]-Asp-NH2] (Hexanoyl-CPPTQFCD-NH2; linker 1-7 via Pyridine(2,6-diCH2)) | < 10 nM | < 10 nM |  |  | 
CCCCCC(=O)N[C@H]1CSCc2cncc(c2)CSC[C@@H](C(=O)N[C@@H](CC(=O)O)C(N)=O)NC(=O)[C@H](Cc2ccccc2)NC(=O)[C@H](CCC(N)=O)NC(=O)[C@H]([C@@H](C)O)NC(=O)[C@@H]2CCCN2C(=O)[C@@H]2CCCN2C1=O [3BP-3519, Hex-[Cys(3Lut)-Pro-Pro-Thr-Gln-Phe-Cys]-Asp-NH2] (Hexanoyl-CPPTQFCD-NH2; linker 1-7 via Pyridine(3,5-bisCH2)) | < 10 nM | < 10 nM |  |  | 
CCCCCC(=O)N[C@H]1CSCc2cc(cc(CN3CCN(C(=O)CN4CCN5CCN6CCN(CC4)CC(=O)[O][Eu]([O]C(=O)C6)[O]C(=O)C5)CC3)c2)CSC[C@@H](C(=O)N[C@@H](CC(=O)O)C(N)=O)NC(=O)[C@H](Cc2ccccc2)NC(=O)[C@H](CCC(N)=O)NC(=O)[C@H]([C@@H](C)O)NC(=O)[C@@H]2CCCN2C(=O)[C@@H]2CCCN2C1 [3BP-3661, Europium-Complex of Hex-[Cys(tMeBn(DOTA-PP))-Pro-Pro-Thr-Gln-Phe-Cys]-Asp-NH2] |  |  | < 10 nM | < 10 nM | 
CCCCCC(=O)N[C@H]1CSCc2cc(CSCCNC(=O)CN3CCN4CCN5CCN(CC3)CC(=O)[O][Eu]([O]C(=O)C4)[O]C(=O)C5)cc(c2)CSC[C@@H](C(=O)O)NC(=O)[C@H](Cc2ccccc2)NC(=O)[C@H](CCC(N)=O)NC(=O)[C@H]([C@@H](C)O)NC(=O)[C@@H]2CCCN2C(=O)[C@@H]2CCCN2C1 [3BP-3662, Europium-Complex of Hex-[Cys(tMeBn(DOTA-AET))-Pro-Pro-Thr-Gln-Phe-Cys]-OH] |  |  | < 10 nM | < 10 nM | 
CCCCCC(=O)N[C@H]1CSCc2cc(CSCCNC(=O)CN3CCN(CC(=O)O)CCN(CC(=O)O)CCN(CC(=O)O)CC3)cc(c2)CSC[C@@H](C(=O)O)NC(=O)[C@H](Cc2cccnc2)NC(=O)[C@H](CCC(N)=O)NC(=O)[C@H]([C@@H](C)O)NC(=O)[C@@H]2CCCN2C(=O)[C@@H]2CCCN2C1 [3BP-3664, Hex-[Cys(tMeBn(DOTA-AET))-Pro-Pro-Thr-Gln-Mpa-Cys]-OH] |  |  | < 10 nM | < 10 nM | 
CCCCCS(=O)(=O)N[C@H]1CSCc2cc(CSCCNC(=O)CN3CCN(CC(=O)O)CCN(CC(=O)O)CCN(CC(=O)O)CC3)cc(c2)CSC[C@@H](C(=O)O)NC(=O)[C@H](Cc2ccccc2)NC(=O)[C@H](CCC(N)=O)NC(=O)[C@H]([C@@H](C)O)NC(=O)[C@@H]2CCCN2C(=O)[C@@H]2CCCN2C1=O [3BP-3691, Pentyl-SO2-[Cys(tMeBn(DOTA-AET))-Pro-Pro-Thr-Glu-Phe-Cys]-OH] |  |  | 10 to 79.4 nM |  | A (pIC50 values >8.0)
CCCCCC(=O)N[C@H]1CSCc2cc(CSCCNC(=O)CN3CCN(CC(=O)O)CCN(CC(=O)O)CCN(CC(=O)O)CC3)cc(c2)CSC[C@@H](C(N)=O)NC(=O)[C@H](Cc2ccccc2)NC(=O)[C@H](CCC(N)=O)NC(=O)[C@H]([C@@H](C)O)NC(=O)[C@@H]2CCCN2C(=O)CN(C)C1=O [3BP-3744, Hex-[Cys(tMeBn(DOTA-AET))-Nmg-Pro-Thr-Gln-Phe-Cys]-NH2] (Hexanoyl-C[Sar]PTQFC-NH2; linker 1-7 via TBMB(SCH2CH2NH-DOTA)) |  |  | < 10 nM | < 10 nM | 
CCCCCC(=O)N[C@H]1CSCc2cc(CSCCNC(=O)CN3CCN(CC(=O)O)CCN(CC(=O)O)CCN(CC(=O)O)CC3)cc(c2)CSC[C@@H](CO)NC(=O)[C@H](Cc2ccccc2)NC(=O)[C@H](CCC(N)=O)NC(=O)[C@H]([C@@H](C)O)NC(=O)[C@@H]2CCCN2C(=O)[C@@H]2CCCN2C1=O [3BP-3762, Hex-[Cys(tMeBn(DOTA-AET))-Pro-Pro-Thr-Gln-Phe-Cysol]] (Hexanoyl-CPPTQF; linker 1-C via X5) |  |  | 100 to 794 nM | > 1000 nM | 
CCCCCC(=O)N[C@H]1CSCc2cc(CSCCNC(=O)CN3CCN(CC(=O)O)CCN(CC(=O)O)CCN(CC(=O)O)CC3)cc(c2)CSC[C@@H](CO)NC(=O)[C@H](Cc2ccccc2)NC(=O)[C@H](CCC(N)=O)NC(=O)[C@H]([C@@H](C)O)NC(=O)[C@@H]2CCCN2C(=O)[C@@H]2CCCN2C1=O [3BP-3767, Hex-[Cys(tMeBn(DOTA-AET))-Pro-Pro-Thr-Gln-Phe-Cysol]] (Hexanoyl-CPPTQF; linker 1-C via X5) |  |  | < 10 nM | < 10 nM | 
CCCCCC(=O)N[C@H]1CSCc2cc(cc(CN3CCN(C(=O)CN4CCN5CCN6CCN(CC4)CC(=O)[O][In]([O]C(=O)C6)[O]C(=O)C5)CC3)c2)CSC[C@@H](C(=O)O)NC(=O)[C@H](Cc2ccccc2)NC(=O)[C@H](CCC(N)=O)NC(=O)[C@H]([C@@H](C)O)NC(=O)[C@@H]2CCCN2C(=O)[C@@H]2CCCN2C1=O [3BP-3770, Hex-[Cys(tMeBn(InDOTA-PP))-Pro-Pro-Thr-Gln-Phe-Cys]-OH] |  |  | < 10 nM | < 10 nM | 
CCCCCC(=O)N[C@H]1CSCc2cc(cc(CN3CCN(C(=O)CN4CCN(CC(=O)O)CCN(CC(=O)O)CCN(CC(=O)O)CC4)CC3)c2)CSC[C@@H](C(=O)O)NC(=O)[C@H](Cc2ccccc2)NC(=O)[C@H](CCC(N)=O)NC(=O)[C@H]([C@@H](C)O)NC(=O)[C@@H]2CCCN2C(=O)CN(C)C1=O [3BP-3771, Hex-[Cys(tMeBn(DOTA-PP))-Nmg-Pro-Thr-Gln-Phe-Cys]-OH] (Hexanoyl-C[Sar]PTQFC-OH; linker 1-7 via X1) |  |  | < 10 nM | < 10 nM | 
CCCCCC(=O)N[C@H]1CSCc2cc(cc(CN3CCN(C(=O)COCCOCCN)CC3)c2)CSC[C@@H](C(=O)N[C@@H](CC(=O)O)C(N)=O)NC(=O)[C@H](Cc2ccccc2)NC(=O)[C@H](CCC(N)=O)NC(=O)[C@H]([C@@H](C)O)NC(=O)[C@@H]2CCCN2C(=O)[C@@H]2CCCN2C1=O [3BP-3967, Hex-[Cys-(tMeBn(H-O2Oc-PP))-Pro-Pro-Thr-Gln-Phe-Cys]-Asp-NH2] (Hexanoyl-CPPTQFCD-NH2; linker 1-7 via X52) |  |  | < 10 nM | < 10 nM | 
CCCC[C@H](NC(=O)CCC(=O)NCCCOCCOCCOCCCNC(=O)CCCCCN)C(=O)N[C@H]1CSCc2cccc(c2)CSC[C@@H](C(=O)N[C@@H](CC(=O)O)C(N)=O)NC(=O)[C@H](Cc2ccccc2)NC(=O)[C@H](CCC(N)=O)NC(=O)[C@H]([C@@H](C)O)NC(=O)[C@@H]2CCCN2C(=O)[C@@H]2CCCN2C1=O [3BP-3980, H-Ahx-Ttds-Nle-[Cys-(3MeBn)-Pro-Pro-Thr-Gln-Phe-Cys]-Asp-NH2] ({X41-Suc}-[Nle]CPPTQFCD-NH2; linker 2-8 via mXylylene) |  |  | < 10 nM | < 10 nM | 
